Patent publication US5808139A (Ligand Pharmaceuticals Incorporated, priority 1994, dated 1998)

How the values were obtained:
[1] = tested on: human progesterone receptor altered at the Tau-1 location; assay: Co-transfection assay in CV-1 cells, progesterone receptor altered at Tau-1, antagonist activity; assay type: cell-based; settings: for Efficacy (% maximal response relative to RU-486), CV-1 cells: antagonist activity; for IC50: concentration required to reduce the maximal response by 50%, read-out: Potency (IC50), CV-1 cells
Source text: This assay is described in further detail in U.S. Pat. Nos. 4,981,784 and 5,071,773, which are incorporated herein by reference. The co-transfection assay provides a method for identifying functional ligands (either agonists which mimic, or antagonists which inhibit, the effect of hormones) for ligand-responsive receptor proteins.
The co-transfection assay provides a mechanism to evaluate ability of a compound to function as an agonist or antagonist of the activity modulated by an intracellular receptor. The co-transfection assay mimics an in vivo system in the laboratory. In the co-transfection assay, a cloned gene for an intracellular receptor is introduced by transfection (a procedure to induce cells to take up foreign genes) into a background cell substantially devoid of endogenous intracellular receptors. This introduced gene directs the recipient cells to make the intracellular receptor protein. A second gene is also introduced (co-transfected) into the same cells in conjunction with the intracellular receptor gene. This second gene functions as a reporter for the transcription-modulating activity of the target intracellular receptor. The reporter acts as a surrogate for the products normally expressed by a gene under control of the target receptor and its natural hormone.
A preferred reporter gene is one which expresses the firefly enzyme luciferase. The co-transfection assay can detect small molecule agonists or antagonists of target intracellular receptors. Exposing the cells to an agonist ligand increases reporter activity in the transfected cells that can be conveniently measured, reflecting ligand-dependent, intracellular receptor-mediated increases in reporter transcription. To detect antagonists, the co-transfection assay is carried out in the presence of a constant concentration of an agonist known to induce a defined reporter signal. Increasing concentrations of a test antagonist will decrease the reporter signal. The co-transfection assay is therefore useful to detect both agonists and antagonists of specific intracellular receptors. It determines not only whether a compound interacts with a particular intracellular receptor, but also whether this interaction mimics (agonizes) or blocks (antagonizes) the effects of the natural regulatory molecules on target gene expression.
Co-transfected cells are exposed to a medium to which is added the potential ligand that is being evaluated. If the candidate ligand diffuses into the cell and binds to the receptor and the resulting complex functions as an agonist, it binds to the co-transfected reporter gene and initiates transcription. When that gene is one that expresses, for example, luciferase, luciferase is produced which catalyzes a light-emitting reaction with its substrate luciferin. Thus, after cell lysis and the introduction of luciferin, the amount of light produced relative to the concentration of candidate ligand used in the assay provides a measure of the potency and efficacy of the compound tested. Antagonist activity is evaluated by adding the candidate ligand and a known agonist to the co-transfected cells.
The receptor cDNA was introduced in a mammalian expression vector under the control of the Rous Sarcoma virus LTR. […] A reporter vector was also transfected, containing a firefly luciferase gene under the control of the hormone-responsive promoter. […] The level of luciferase activity was then measured in cell extracts. Light emission is directly proportional to the effectiveness of the hormone-receptor complex in activating gene expression.
A total of three replicates per concentration point were tested for each compound, and the EC50 was calculated for each positive response. Both agonist and antagonist activity for each test compound was determined in parallel. […]

[2] = tested on: progesterone receptor (T47D cells); assay: Antagonist assay in T47D (human breast cancer) cells (Tables 1 and 2); assay type: cell-based; settings: for Efficacy (% maximal response relative to RU-486), T47D cells: antagonist activity; for IC50: concentration required to reduce the maximal response by 50%, read-out: Potency (IC50), T47D cells
Source text: The functional activities of the cyclocymopol analogues in the human breast cell line, T47D, were also investigated. T47D cells have proven to be a particularly useful model to investigate the molecular actions of sex steroids because they contain endogenous functional receptors for, and respond to, progestins, and their respective antagonists. […] In T47D cells, progestins induce de novo synthesis of a plasma-associated alkaline phosphatase, which has been reported to be similar, if not identical, to the alkaline phosphatase present in the normal breast and human milk. These tests were conducted according to the following illustrative example.
The assay was also run using T47D (human breast cancer) cells.

[3] = target: T1, human progesterone receptor (Homo sapiens, UniProt P06401); assay: Progesterone receptor binding (displacement of 3H-progesterone, whole cell extract of transfected CV-1 cells); parameters: expressed in transfected cells; host or cells: CV-1 cells (calcium phosphate transfection), whole cell extract
T1 sequence (P06401 1-933): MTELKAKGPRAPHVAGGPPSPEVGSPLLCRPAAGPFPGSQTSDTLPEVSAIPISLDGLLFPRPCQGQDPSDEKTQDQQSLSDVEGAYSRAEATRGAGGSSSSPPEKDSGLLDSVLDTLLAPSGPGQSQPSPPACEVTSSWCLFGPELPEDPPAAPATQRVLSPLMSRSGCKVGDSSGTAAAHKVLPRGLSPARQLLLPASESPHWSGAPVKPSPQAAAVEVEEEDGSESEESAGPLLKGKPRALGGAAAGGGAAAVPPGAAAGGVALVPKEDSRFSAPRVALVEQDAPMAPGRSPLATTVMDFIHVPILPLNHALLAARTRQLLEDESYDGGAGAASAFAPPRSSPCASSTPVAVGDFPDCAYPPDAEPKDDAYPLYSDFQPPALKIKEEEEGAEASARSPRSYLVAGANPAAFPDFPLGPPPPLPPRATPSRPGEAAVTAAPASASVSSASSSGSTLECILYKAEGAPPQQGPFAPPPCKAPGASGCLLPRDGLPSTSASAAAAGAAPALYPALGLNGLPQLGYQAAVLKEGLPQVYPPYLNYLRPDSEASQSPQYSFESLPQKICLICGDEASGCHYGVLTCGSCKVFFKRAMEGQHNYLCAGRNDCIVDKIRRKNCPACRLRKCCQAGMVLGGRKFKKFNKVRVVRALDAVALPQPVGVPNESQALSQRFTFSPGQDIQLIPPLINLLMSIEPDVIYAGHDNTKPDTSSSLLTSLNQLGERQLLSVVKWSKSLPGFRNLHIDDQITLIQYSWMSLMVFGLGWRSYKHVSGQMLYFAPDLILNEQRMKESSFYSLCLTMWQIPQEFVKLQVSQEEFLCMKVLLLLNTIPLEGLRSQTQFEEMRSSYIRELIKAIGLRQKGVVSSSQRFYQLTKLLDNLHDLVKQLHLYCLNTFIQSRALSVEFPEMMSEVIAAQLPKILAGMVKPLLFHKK
Procedure: These tests were conducted according to the following illustrative example.
CO2 for 40 hours prior to harvest.
After incubation, cells were harvested and washed in phosphate buffered saline. Whole cell receptor extract was prepared by homogenizing the harvested cells in Tris-HCl buffer, pH=7.4, containing 30% glycerol, 1 mM EDTA, 12 mM monothioglycerol, 1 mM PMSF, and 0.5M potassium chloride. The homogenate was incubated at 4° C. for 60 min with resuspension every 10 min. The suspension was centrifuged (105,000×g, 60 min) and the supernatant was collected and flash frozen in liquid nitrogen and stored frozen at -70° C.
To a […] final volume incubation mixture, […] of 7.5% (w/v) dextran-coated charcoal suspension in gelatin phosphate buffer was added. The mixture was vortexed and incubated at 4° C. for 10 min and then centrifuged at 3000 rpm for 10 min. The amount of bound tritiated hormone was determined by liquid scintillation spectrophotometry of an aliquot of the supernatant. […]

IC50 [1] [nM]	IC50 [2] [nM]	Kd [3] [nM]	Compound	Efficacy (% maximal response relative to RU-486), CV-1 cells [1] [%]	Efficacy (% maximal response relative to RU-486), T47D cells [2] [%]
2900	380	362	C=C1C[C@H](CCC2OCCO2)CC(C)(C)[C@@H]1Cc1cc(OC)c(Br)cc1O (relative stereo) [W, cis-1-Methylidene-2-(2'-hydroxy-4'-bromo-5'-methoxyphenyl)methyl-3,3-dimethyl-5-(propanal-1,3-dioxolane)cyclohexane]	85	85
5140	7190	28	C=C1C[C@H](C)CC(C)(C)[C@@H]1Cc1cc(OC)c(Br)cc1O (relative stereo) [BB, cis-1-Methylidene-2-(2'-hydroxy-4'-bromo-5'-methoxyphenyl)methyl-3,3,5-trimethyleyclohexane]	38	41
550	200	925	O=C1CCCCC1Cc1ccc([N+](=O)[O-])cc1 (stereo not shown) [F, 2-(4'-Nitrophenyl)methylcyclohexan-1-one]	100	80
875	350	75	C=C1C=CCC(C)(C)C1Cc1ccc([N+](=O)[O-])c(C)c1 (stereo not shown) [M, 1-Methylidene-6-(3'-methyl-4'-nitrophenyl)methyl-5,5-dimethylcyclohex-2-ene]	90	80
3000	1100	2310	C=C1C[C@@](C)(CO)CC(C)(C)[C@@H]1Cc1cc(OC)c(Br)cc1O (relative stereo) [HH, trans-1-Methylidene-2-(2'-hydroxy-4'-bromo-5'-methoxyphenyl)methyl-3,3,5-trimethyl-5-(hydroxymethyl)cyclohexane]	85	81
1600	300	190	C=C1CCCC(C)(C)C1Cc1cc(OC)c(Br)cc1OC(=O)c1ccccc1 (stereo in doubt) [U, (3R)-1-Debromocyclocymopol monomethyl ether, benzoate]	95	80
1220	250	230	C=C1CCCC(C)(C)C1Cc1cc(OC)c(Br)cc1OC(=O)OC (stereo in doubt) [R, (3R)-1-Debromocyclocymopol monomethyl ether, methyl carbonate]	95	85
1600	1300	346	C=C1C=C[C@@H](C)C(C)(C)[C@@H]1Cc1cc(OC)c(Br)cc1O (relative stereo) [KK, trans-1-Methylidene-6-(2'-hydroxy-4'-bromo-5'-methoxyphenyl)methyl-4,5,5-trimethylcyclohex-2-ene]	75	76
1200	225	245	C=C1CCCCC1Cc1ccc([N+](=O)[O-])cc1 (stereo not shown) [Q, 1-Methylidene-2-(4'-nitrophenyl)methylcyclohexane]	95	65
2100	1800	409	C=C1CC[C@@H](Br)C(C)(C)[C@@H]1Cc1cc(OC)c(C=O)cc1O [NN, (3R)-4'-Formylcyclocymopol monomethyl ether]	31	83
450	150	50	C=C1CCCC(C)(C)C1Cc1cc(OC)c(Br)cc1OC(=O)OC (stereo in doubt) [Compound D, (3S)-1-Debromocyclocymopol monomethyl ether, methyl carbonate]	45	55
1580	300	185	C=C1CC[C@@H](Br)C(C)(C)[C@@H]1Cc1cc(OC)c(Br)cc1OC(=O)OC [T, (3R)-Cyclocymopol monomethyl ether, methyl carbonate]	90	90

Compound	IC50 [1] [nM]	IC50 [2] [nM]	Kd [3] [nM]	Efficacy (% maximal response relative to RU-486), CV-1 cells [1] [%]	Efficacy (% maximal response relative to RU-486), T47D cells [2] [%]
COc1cc(CC2C(C)(C)CC(C)=CC23CC3)c(OC(C)=O)cc1Br (stereo not shown) [DD, 8-(2'-Acetoxy-4'-bromo-5'-methoxyphenyl)methyl-5,7,7-trimethylspiro[2.5]oct-4-ene]	160	440	104	26	68
C=C1C=C[C@@H](C)C(C)(C)[C@@H]1Cc1cc(OC)c(Br)cc1OC(C)=O (relative stereo) [N, trans-1-Methylidene-6-(2'-acetoxy-4'-bromo-5'-methoxyphenyl)methyl-4,5,5-trimethylcyclohex-2-ene]	1000	325	195	90	70
